The values below come from ChEMBL document CHEMBL1909046, “DrugMatrix in vitro pharmacology data”.

A word on the IC50: it is the concentration that gives 50% inhibition. High values mean a need for much substance, low ones inhibition by little substance.

For test [1], the target named is T1, Androgen receptor (Rattus norvegicus, UniProt P15207).
T1 sequence (P15207 whole entry): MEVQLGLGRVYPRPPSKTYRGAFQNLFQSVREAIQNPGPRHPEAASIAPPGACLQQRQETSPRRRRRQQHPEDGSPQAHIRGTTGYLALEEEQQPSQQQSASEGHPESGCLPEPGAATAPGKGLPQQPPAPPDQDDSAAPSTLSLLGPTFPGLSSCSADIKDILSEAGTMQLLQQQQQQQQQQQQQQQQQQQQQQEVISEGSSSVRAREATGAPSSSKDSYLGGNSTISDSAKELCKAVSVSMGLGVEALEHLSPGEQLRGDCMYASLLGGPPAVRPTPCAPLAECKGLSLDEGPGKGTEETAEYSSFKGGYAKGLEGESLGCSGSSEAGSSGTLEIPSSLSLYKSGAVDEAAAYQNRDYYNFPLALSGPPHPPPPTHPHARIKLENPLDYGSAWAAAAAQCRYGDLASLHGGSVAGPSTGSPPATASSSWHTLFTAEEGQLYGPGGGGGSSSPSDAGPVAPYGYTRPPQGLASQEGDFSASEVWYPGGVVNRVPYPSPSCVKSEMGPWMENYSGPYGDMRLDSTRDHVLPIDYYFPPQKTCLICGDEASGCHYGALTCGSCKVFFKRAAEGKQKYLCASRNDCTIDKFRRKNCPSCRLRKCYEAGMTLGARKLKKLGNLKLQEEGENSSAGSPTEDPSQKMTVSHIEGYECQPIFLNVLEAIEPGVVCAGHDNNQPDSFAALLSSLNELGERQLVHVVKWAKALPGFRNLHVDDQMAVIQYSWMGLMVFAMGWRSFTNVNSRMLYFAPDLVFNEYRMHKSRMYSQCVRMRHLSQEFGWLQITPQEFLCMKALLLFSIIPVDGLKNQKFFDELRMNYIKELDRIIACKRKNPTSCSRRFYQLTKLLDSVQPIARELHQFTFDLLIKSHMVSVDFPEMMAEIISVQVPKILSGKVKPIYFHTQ

Test [2] concerns the target Cytochrome P450 2D6 (Homo sapiens, UniProt P10635).
The target of test [3] is T2, Cytochrome P450 1A2 (Homo sapiens, UniProt P05177).
T2 sequence (P05177 whole entry): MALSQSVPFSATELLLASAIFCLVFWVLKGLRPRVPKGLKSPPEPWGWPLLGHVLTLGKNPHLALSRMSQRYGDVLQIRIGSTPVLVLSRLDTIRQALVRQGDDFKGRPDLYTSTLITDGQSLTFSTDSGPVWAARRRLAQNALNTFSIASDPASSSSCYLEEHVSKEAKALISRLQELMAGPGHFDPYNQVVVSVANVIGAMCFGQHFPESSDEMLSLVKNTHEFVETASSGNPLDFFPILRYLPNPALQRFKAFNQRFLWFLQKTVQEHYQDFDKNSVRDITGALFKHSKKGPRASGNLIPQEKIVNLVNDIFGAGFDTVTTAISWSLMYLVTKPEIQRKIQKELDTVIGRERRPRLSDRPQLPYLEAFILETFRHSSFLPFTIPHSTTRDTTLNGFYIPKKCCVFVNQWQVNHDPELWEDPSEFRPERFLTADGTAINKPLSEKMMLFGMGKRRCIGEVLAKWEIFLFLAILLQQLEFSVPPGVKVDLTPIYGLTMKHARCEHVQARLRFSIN
Note: in other assays of this panel Not Active means under 50% inhibition at 10 µM.

Sequence of Cytochrome P450 2D6 (P10635 whole entry): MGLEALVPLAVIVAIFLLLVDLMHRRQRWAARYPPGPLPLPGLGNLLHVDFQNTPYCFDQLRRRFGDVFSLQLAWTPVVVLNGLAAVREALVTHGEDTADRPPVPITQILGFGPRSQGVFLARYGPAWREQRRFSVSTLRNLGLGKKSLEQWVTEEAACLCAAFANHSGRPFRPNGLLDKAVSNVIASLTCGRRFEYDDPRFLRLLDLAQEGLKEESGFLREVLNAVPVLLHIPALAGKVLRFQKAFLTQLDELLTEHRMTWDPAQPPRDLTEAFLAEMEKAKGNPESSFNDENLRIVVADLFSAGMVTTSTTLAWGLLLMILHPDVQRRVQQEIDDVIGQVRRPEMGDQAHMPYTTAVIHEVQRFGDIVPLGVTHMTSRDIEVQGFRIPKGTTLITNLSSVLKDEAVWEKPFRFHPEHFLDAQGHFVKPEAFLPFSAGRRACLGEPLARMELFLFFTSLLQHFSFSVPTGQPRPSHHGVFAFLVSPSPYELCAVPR

For `N[C@H](CSC(=S)NCc1ccccc1)C(=O)O`, in test [1], the IC50 result is reported as “Not Active”.
In the case of `CC(=O)N[C@@H]1[C@H](Oc2c3cc4cc2Oc2ccc(cc2Cl)[C@@H](O[C@@H]2O[C@@H](CO)[C@@H](O)[C@H](O)[C@@H]2NC(C)=O)[C@@H]2NC(=O)[C@H](NC(=O)[C@@H]4NC(=O)[C@H]4NC(=O)[C@@H](Cc5ccc(c(Cl)c5)O3)NC(=O)[C@H](N)c3ccc(O)c(c3)Oc3cc(O)cc4c3)c3ccc(O)c(c3)-c3c(O[C@H]4O[C@H](CO)[C@@H](O)[C@@H](O)[C@@H]4O)cc(O)cc3[C@@H](C(=O)O)NC2=O)O[C@@H](CO)[C@@H](O)[C@@H]1O`, the IC50 entry in test [1] is “Not Active”.
In test [2], `Clc1ccc2c(c1)C(N1CCNCC1)=Nc1ccccc1O2` [AMOXAPINE] displayed a concentration for half-maximal inhibition (IC50) of 10 µM.
Take `COc1cc2c(c(OC)c1OC)-c1ccc(OC)c(=O)cc1[C@@H](NC(C)=O)CC2` [COLCHICINE]: the concentration for half-maximal inhibition (IC50) result in test [1] is listed as “Not Active”.
Consider `CC(C)NCC(O)COc1cccc2ccccc12` (stereo not drawn) [PROPRANOLOL], for which, in test [3], half-maximal inhibition (IC50) was put at 4 µM.
Take `CO[C@H]1/C=C/O[C@@]2(C)Oc3c(C)c(O)c4c(c3C2=O)C2=NC3(CCN(CC(C)C)CC3)NC2=C(NC(=O)/C(C)=C\C=C\[C@H](C)[C@H](O)[C@@H](C)[C@@H](O)[C@@H](C)[C@H](OC(C)=O)[C@@H]1C)C4=O` [RIFABUTIN]: the IC50 entry in test [1] was “Not Active”.
On the same count and under the same terms, the same measure for `COc1cc(NS(=O)(=O)c2ccc(N)cc2)nc(OC)n1` [SULFADIMETHOXINE]: “Not Active”.
As to `C[C@@H](N)[C@H]1CC[C@H](C(=O)Nc2ccncc2)CC1` [Y-27632], the IC50 result in test [1] was “Not Active”.
